Test [1] addresses T1, GPR37 (Homo sapiens, UniProt O15354).
T1 sequence (O15354 27-613): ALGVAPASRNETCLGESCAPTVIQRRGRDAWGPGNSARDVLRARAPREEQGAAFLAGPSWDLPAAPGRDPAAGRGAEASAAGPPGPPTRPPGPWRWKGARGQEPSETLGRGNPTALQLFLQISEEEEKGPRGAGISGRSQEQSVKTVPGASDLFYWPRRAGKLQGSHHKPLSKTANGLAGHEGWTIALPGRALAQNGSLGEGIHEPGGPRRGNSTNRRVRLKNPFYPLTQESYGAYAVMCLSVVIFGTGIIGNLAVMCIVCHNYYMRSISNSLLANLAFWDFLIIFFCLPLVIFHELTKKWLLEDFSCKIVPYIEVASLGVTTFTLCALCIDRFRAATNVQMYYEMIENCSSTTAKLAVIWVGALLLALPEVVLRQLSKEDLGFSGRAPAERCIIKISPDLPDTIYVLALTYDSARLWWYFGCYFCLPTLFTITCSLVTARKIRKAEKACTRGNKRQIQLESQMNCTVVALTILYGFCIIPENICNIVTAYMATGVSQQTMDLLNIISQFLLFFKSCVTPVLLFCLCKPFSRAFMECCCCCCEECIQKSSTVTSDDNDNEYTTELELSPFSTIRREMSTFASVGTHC
As to the kind of experiment: Ca2+ imaging in HEK293T cells expressing human GPR37 versus mock; lipid overlay dot blot with GPR37-HEK293T lysate. It counts as cell-based.

The target in test [2] is T1, GPR37. As to the kind of experiment: lipid overlay dot blot: ligand-coated PVDF membrane with lysates of HEK293T cells with and without GPR37.

Results on two molecules are retold here after article PMC12807480, “Protectin DX resolves fracture-induced postoperative pain in mice via neuronal signaling and GPR37-activated macrophage efferocytosis” (The Journal of Clinical Investigation, 2026).

As usually defined, the pEC50 is the EC50 on a negative log10 scale, so that one unit is a factor of ten. Higher therefore signals a small EC50.

pEC50: −log10 of the molar value.

For `CC/C=C\C[C@H](O)/C=C/C=C\C=C\[C@@H](O)C/C=C\C/C=C\CCC(=O)O` [PDX, Protectin DX], on GPR37 [1], the pEC50 is 7.63.

`CC/C=C\C[C@H](O)\C=C/C=C/C=C/[C@H](O)C/C=C\C/C=C\CCC(=O)O` [NPD1, neuroprotectin D1]: the “lipid overlay dot blot: ligand-coated PVDF membrane with lysates of HEK293T cell” value at GPR37 [2] was “Lipid overlay assays further confirmed direct binding of PDX and NPD1 to GPR37”.
